Experimental data published in patent publication US20250375420A1 (ZYLORION HEALTH INC., priority 2022, published 2025).
Where two headings read alike, the source gives them in different places.

Tests used:
C57BL/6 mice [1] = test: Head-twitch response (HTR); format: in vivo, mouse; details: i.p.
Procedure: C57BL/6 mice were treated with increasing doses of compounds as indicated via i.p. injection. Mice were placed inside a clear cylinder and video recorded for 10 min immediately after compound administration. Head-twitch was recorded by an individual blinded to treatment as a lateral, rhythmic shaking of the head distinct from grooming or vertical head nod. Data were plotted in GraphPad (v. 9). n≥3 animals per dose. Data are expressed as mean±SEM.

h5HT2a [2] = target: T1, h5HT2a (Homo sapiens, UniProt P28223); test: cell-based; format: cell-based; design: expressed in transfected cells; host or cells: CHO-K1
Procedure: Compound activity was quantified as βarrestin2 recruitment from CHO-K1 cells expressing h5HT2a and treated with 0.1 nM-10 μM compounds.
CHO-K1 cells express h5HT2a-smBIT and βarrestin2-lgBiT fusion proteins. When h5HT2a and βarrestin2 come into contact with one another the smBIT and IgBIT peptides complement each other to produce a complete NanoBit luciferase enzyme. When complete, the enzyme is able to catalyze the breakdown of the molecule coelenterazine to produce light. Emitted light levels are proportional to interactions between h5HT2a and βarrestin2. CHO-K1 cells were treated with between 0.1 nM-10 μM of each compound for 2 h, during which period chemiluminescence is recorded. Area under the curve data for cumulative chemiluminescence are then fit to a three-parameter non-linear regression to determine potency (EC50) and efficacy (Emax). Data were fit to a three-parameter non-linear regression in GraphPad (v. 9). n=3-13 independent experiments performed in duplicate or triplicate. Data are expressed as mean±SEM.

h5HT2a [3] = target: T1, h5HT2a; test: cell-based; format: cell-based; design: expressed in transfected cells; host or cells: CHO-K1 (AequoScreen line with aequorin in A1; membranes of stably expressing CHO-K1 cells in A3)
Procedure: AequoScreen CHO-K1 cells stably-expressing h5HT2a contain an aequorin protein that, when bound to Ca^2+, is able to catalyze the breakdown of the molecule coelenterazine to produce light. Emitted light levels are proportional to endoplasmic reticulum Ca^2+ release. CHO-K1 cells were treated with between 0.1 nM-10 μM of each compound for 1 min before chemiluminescence is recorded. Resulting data are then fit to a three parameter non-linear regression to determine potency (EC50) and efficacy (Emax). Data were fit to a three-parameter non-linear regression in GraphPad (v. 9). n=3-29 independent experiments performed in duplicate or triplicate. Data are expressed as mean±SEM.

C57BL/6 mice [4] = test: Catalepsy, bar holding assay; format: in vivo, mouse; details: i.p., increasing doses, 10 min after administration
Procedure: (§1) Compound activity was quantified in C57BL/6 mice for catalepsy (10 min) (top), nociception in the tail flick latency test (15 min) (middle), and body temperature relative to baseline (20 min) (bottom).
(§2) C57BL/6 mice were treated with increasing doses of compounds as indicated via i.p. injection. Tests were as follows: Body temperature is taken before administration of the first dose of compound for baseline. Catalepsy—the bar holding assay, 10 min after compound administration. Mice are placed such that their forepaws clasp a 0.7 cm ring clamp positioned 4.5 cm above the surface of the testing space. The length of time the ring is held is recorded (sec). The trial is ended if the mouse turns its head or body, or makes 3 consecutive escape attempts, to a maximum of 60 sec. Nociception—15 min after compound administration the mouse's tail is placed in 52° C. water. Latency to remove the tail from water is recorded to a maximum of 20 sec. Body temperature—rectal thermometer 20 min after compound administration. Data were plotted in GraphPad (v. 9). n≥6 animals per dose. Data are expressed as mean±SEM.

h5HT2a [5] = target: T1, h5HT2a; test: biochemical; format: binding; design: expressed in transfected cells; host or cells: CHO-K1 (AequoScreen line with aequorin in A1; membranes of stably expressing CHO-K1 cells in A3); details: 1 nM [3H]ketanserin, 0.1 nM-10 μM compound, 2 h
Procedure: CHO-K1 cells stably-expressing h5HT2a are grown, collected, and frozen at −80° C. Cells are thawed as needed and subjected to pressure cavitation using a Dounce homogenizer to rupture cell membranes. Cell membranes are then collected by subjecting cell lysates to high-speed centrifugation at 20,000×g for 30 min at 4° C. Homogenization and centrifugation are repeated to enrich the sample for receptor-containing cell membranes. CHO-K1 cell membranes are the co-incubated with 1 nM [^3H]ketanserin and between 0.1 nM-10 μM of each compound for 2 h. Samples are then pipetted onto filter paper before being rinsed and washed by vacuum filtration three times, dried, and incubated overnight in scintillation fluid. […] Resulting data are then fit to a three-parameter non-linear regression to determine affinity (Ki). […] Data are expressed as mean±SEM.

[6] = Dynamic vapor sorption (DVS) analysis; format: physicochemical
Procedure: Moisture sorption isotherms were collected on a DVS Adventure system from Surface Measurement Systems (London, UK). Sample size was circa 10 mg of solid material. A full sorption and desorption isotherm was recorded by varying the relative humidity from 40-95-0-40% in steps of 10% at a constant temperature of 25° C. Weight equilibration per step was set at dm/dt of 0.002%/min. Afterwards the sample was measured by HT-XRPD.

C57BL/6 mice [7] = test: Nociception, tail flick latency test (52° C. water); format: in vivo, mouse; details: i.p., increasing doses, 15 min after administration
Procedure: as §1, §2

C57BL/6 mice [8] = test: Body temperature relative to baseline (rectal thermometer); format: in vivo, mouse; details: i.p., increasing doses, 20 min after administration
Procedure: as §1, §2

C57BL/6 mice [9] = test: Open field task (OFT); format: in vivo, mouse; details: i.p., 30 min after administration; significant for movement and velocity, not time in center, at 7 or 10 mg/kg
Procedure: C57BL/6 mice were treated with increasing doses of compounds as indicated via i.p. injection. Mice are placed in the open field 30 min after compound administration. The open field measures 1 m×1 m and the test lasts for 5 min. Total distance travelled, velocity, and time spent in the central quadrant of the field are recorded and analyzed using Etho Vision XT (Noldus, v. 17). Data were plotted in GraphPad (v. 9). n≥4 animals per dose. Data are expressed as mean±SEM.

C57BL/6 mice [10] = test: Elevated plus maze (EPM); format: in vivo, mouse; details: 3 mg/kg i.p., 30 min, preliminary
Procedure: Representative movement traces from Ethovision in male C57BL/6 mice (top, right).
C57BL/6 mice were treated 3 mg/kg of compounds via i.p. injection. Mice are placed in the EPM 30 min after compound administration. The EPM measures 1 m×1 m and the test lasts for 5 min. Total distance travelled, velocity, arm entries, and time in each arm are recorded and analyzed using EthoVision XT (Noldus, v. 17). Data were plotted in GraphPad (v. 9). n=3-5 animals per treatment. Data are expressed as mean±SEM.

[11] = βarrestin2 recruitment, CHO-K1 h5HT2a

T1 sequence (P28223 whole entry): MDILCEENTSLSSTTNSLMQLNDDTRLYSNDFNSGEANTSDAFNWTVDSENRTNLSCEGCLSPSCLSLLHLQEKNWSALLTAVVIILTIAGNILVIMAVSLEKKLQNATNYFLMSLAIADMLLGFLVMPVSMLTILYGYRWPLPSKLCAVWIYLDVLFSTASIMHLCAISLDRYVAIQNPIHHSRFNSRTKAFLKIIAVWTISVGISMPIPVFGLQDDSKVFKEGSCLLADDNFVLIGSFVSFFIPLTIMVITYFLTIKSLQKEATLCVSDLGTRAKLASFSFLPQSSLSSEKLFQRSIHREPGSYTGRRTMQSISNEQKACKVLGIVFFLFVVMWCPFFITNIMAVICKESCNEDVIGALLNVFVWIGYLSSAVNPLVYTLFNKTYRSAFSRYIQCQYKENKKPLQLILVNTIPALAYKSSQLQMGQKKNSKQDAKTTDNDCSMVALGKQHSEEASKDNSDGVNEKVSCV

Structure (SMILES): CCN(CC)C(=O)[C@@H]1C=C2c3cccc4[nH]cc(c34)C[C@H]2N(C)C1 [LSD]
- time of peak head-twitch effect post-compound administration (C57BL/6 mice [1]; at several tested doses): around 7 min
- Emax (%) ± S.E.M. (h5HT2a [2]): 100 ± 16%
- Emax (%) ± S.E.M. (h5HT2a [3]): 100 ± 9.9%

Structure (SMILES): CN(C)CCc1c[nH]c2cccc(OP(=O)(O)O)c12 [Psilocybin]
- catalepsy (C57BL/6 mice [4]): do not produce catalepsy
- Emax (h5HT2a [2]; [11]): -34 ± 5.9%
- pEC50 ± S.E.M. (h5HT2a [2]; βarrestin2 recruitment, CHO-K1 h5HT2a, 0.1 nM-10 μM, 2 h, AUC): Not Converged
- Emax (h5HT2a [3]; Ca2+ release, CHO-K1 h5HT2a): 69 ± 15%
- EC50 (h5HT2a [3]; Ca2+ release, CHO-K1 h5HT2a, 0.1 nM-10 μM, 1 min): 1500 nM
- Ki (h5HT2a [5]): 390 nM

Structure (SMILES): CCc1cc(/C(C)=N/OCc2ccc(C3CCCCC3)c(C(F)(F)F)c2)ccc1CN1CC(C(=O)O)C1.CCc1cc(/C(C)=N/OCc2ccc(C3CCCCC3)c(C(F)(F)F)c2)ccc1CN1CC(C(=O)O)C1.O=C(O)/C=C/C(=O)O [Crystalline Form A]
- hygroscopicity according to the EP hygroscopicity classification ([6]; DVS, 25° C.): moderately hygroscopic
- total mass difference between 0-95% RH ([6]; DVS, 25° C.): 3.6%
- physical stability after the sorption-desorption cycle (XRPD) ([6]; solid recovered after DVS): physically stable

Structure (SMILES): CNCCc1c[nH]c2cccc(O)c12 [Norpsilocin]
- Emax (%) ± S.E.M. (h5HT2a [2]; [11]): 2.9 ± 27%
- Emax (%) ± S.E.M. (h5HT2a [3]; Ca2+ release, CHO-K1 h5HT2a): 45 ± 14%

Structure (SMILES): CN(C)CCc1c[nH]c2cccc(O)c12 [Psilocin]
- catalepsy (C57BL/6 mice [4]): do not produce catalepsy
- pain perception (nociception) (C57BL/6 mice [7]): significantly reduces pain perception peaking at 1 mg/kg
- body temperature (C57BL/6 mice [8]): dose-dependent hypothermia
- head-twitch response (C57BL/6 mice [1]; 0-10 min after administration): time-dependent head-twitch response
- movement, velocity and time in the center of the open field (C57BL/6 mice [9]): dose-dependent decrease in movement, velocity, and time in the center of the open field
- closed arm time (C57BL/6 mice [10]; p=0.029, unpaired t-test): significantly reduces closed arm time
- open arm time (C57BL/6 mice [10]; p=0.12, unpaired t-test): but not open arm time
- arm entries (C57BL/6 mice [10]): no significant differences in arm entries
- overall movement and velocity in EPM (C57BL/6 mice [10]): trend toward reduced overall movement and velocity
- potency in Ca2+ release assay compared with βarrestin2 recruitment assay (h5HT2a [2]; comparison of the two h5HT2a assays): greater in the Ca^2+ release assay than the βarrestin2 recruitment assay
- βarrestin2 recruitment activity (in words) (h5HT2a [2]; h5HT2a-dependent βarrestin2 recruitment): activator of βarrestin2 recruitment
- Emax (h5HT2a [2]; [11]): 89 ± 22%
- Emax (h5HT2a [3]; Ca2+ release, CHO-K1 h5HT2a): 89 ± 11%
- Ca2+ release activity (in words) (h5HT2a [3]; h5HT2a-dependent Ca2+ release): potent activator of Ca^2+ release
